Data set [1] has as its system bacterial spores (Geobacillus stearothermophilu). The experiment in a line: first and second sterilization tests, large container (90 L), nebulizer method, BI in sterilization bag, CFU assay. As to conditions: 90 L container, 10^5 CFU spores in glassine paper bag. It counts as cell-based. The procedure:
(§1) The following description will discuss, with reference to FIGS. 2 to 5, results of sterilization tests each using the sterilization device 1 that generates peroxynitric acid gas by a nebulizer method. Here, the sterilization tests were carried out with use of the sterilization device 1 that includes (i) the peroxynitric acid gas generation section 10, which is as illustrated in FIG. 1 and which generates the peroxynitric acid gas by a nebulizer method and (ii) the sterilization treatment section 20 in which the sterilization container 21 having a capacity of 90 L is used. The peroxynitric acid solution was used in an amount of approximately 15 mL per minute in the peroxynitric acid gas generation section 10. The peroxynitric acid mist and the peroxynitric acid gas in the sterilization container 21 were configured to be recirculated into the second container 12 instead of being discharged outside through the air outlet 24.
FIG. 2 is a graph showing a result of a first sterilization test using a large container. FIG. 3 is a graph showing a result of a second sterilization test using a large container. […]

For data set [2] the test system is unchanged. Briefly: third and fourth sterilization tests, large container (90 L), BI in sterilization bag, on-off test (turbidity of culture solution). It counts as cell-based. As to conditions: 90 L container, 10^6 CFU spores in glassine paper bag. The procedure:
as §1
FIG. 4 is a table showing a result of a third sterilization test using a large container. FIG. 5 is a table showing a result of a fourth sterilization test using a large container. The BI is one in which 10^6 CFU bacterial spores (Geobacillus stearothermophilu) are supported on a stainless steel disk and the stainless steel disk is in the sterilization bag 23 made of glassine paper. […]

Data set [3] has the same test system. Briefly: fifth sterilization test, small container (approximately 0.3 L), BI in sterilization bag, CFU assay, survival curves, D value. It counts as cell-based. The text has this: Subsequently, the following description will discuss, with reference to FIGS. 6 and 7, a result of a sterilization test using the sterilization device 1 that generates peroxynitric acid gas by a nebulizer method. The capacity of the sterilization container 21 was as large as 90 L in the sterilization tests in FIGS. 2 to 5, whereas the capacity of the sterilization container 21 was as small as approximately 0.3 L in the sterilization test in FIGS. 6 and 7. The peroxide solution was used in an amount of approximately 3 mL per minute in the peroxynitric acid gas generation section 10. The peroxynitric acid gas in the sterilization container 21 is discharged outside through the air outlet 24 instead of being recirculated into the second container 12.
FIG. 6 is a graph showing a result of a fifth sterilization test using a small container. The BI is one in which 10^5 CFU bacterial spores (Geobacillus stearothermophilu) are supported on a stainless steel disk and the stainless steel disk is in the sterilization bag 23 made of glassine paper. […]
FIG. 7 is a table showing microbicidal activity determined from each of the survival curves S10, S100, S200, S600a, and S600b that are shown in FIG. 6. […] A D value [s] is a time which is calculated from a survival curve and at which the number of living microorganisms reaches 1/10. […]

The subject of data set [4] is spore solution (Bacillus subtilis) on pig skin. Briefly: sixth sterilization test, contaminated pig skin model, CFU assay. Type of data set: cell-based. As to conditions: peroxynitric acid solution 100 mM, approximately 0.3 L container, Bacillus subtilis spores. The text has this:
Subsequently, the following description will discuss, with reference to FIG. 8, a result of a sterilization test using the sterilization device 1 that generates peroxynitric acid gas by a nebulizer method. In the sterilization test shown in FIG. 8, with the aim of application to biological disinfection, a contaminated pig skin model was sterilized by the nebulizer method.
FIG. 8 is a graph showing a result of a sixth sterilization test using a contaminated pig skin model. A 10^6 CFU spore solution (Bacillus subtilis) was applied to pig skin that had been shaved, cleaned, and subjected to sterilization treatment in advance, and the pig skin was dried so as to be a contaminated model. Such a contaminated pig skin model was regarded as the sterilization target 22 and housed in the sterilization container 21 having a capacity of approximately 0.3 L. In so doing, a surface of the contaminated pig skin model was made perpendicular to a direction in which a gas containing the peroxynitric acid gas and the peroxynitric acid mist flowed. A molar concentration of the peroxynitric acid solution to be placed in the second container 12 was set to 100 mM. After the sterilization test, a stomachere was used to collect bacteria on not only a front surface but also a back surface of the contaminated pig skin model, and the CFU assay was carried out.

A short description of data set [5]: half-time of peroxynitric acid solution versus temperature. Type of data set: physicochemical. As to conditions: pH 2.9. As to the method: FIG. 10 is a graph showing half-time of a peroxynitric acid solution. As shown in the graph, the peroxynitric acid solution that has a lower temperature (which may be ambient temperature) has a longer half-time. For example, the peroxynitric acid solution that has pH of 2.9 has a half-time of 132 minutes at 2° C. of the temperature of the peroxynitric acid solution, has a half-time of 26 minutes at 10° C. of the temperature of the peroxynitric acid solution, has a half-time of 7.8 minutes at 20° C. of the temperature of the peroxynitric acid solution, has a half-time of 2 minutes at 30° C. of the temperature of the peroxynitric acid solution, and has a half-time of 0.6 minutes at 40° C. of the temperature of the peroxynitric acid solution. The half-time of the peroxynitric acid solution thus depends on temperature.

For data set [6] the following is noted: 1 atmospheric pressure, cited from earlier work.
For data set [7] the following is noted: cited from earlier work.
For data set [8] the following is noted: cited from earlier work. This is another data set of the same source.
The mark [9] stands for this setting: peroxynitric acid solution 10 mM.
Setting [10] is: peroxynitric acid solution 600 mM.

Like-named read-outs stand apart in the source and are kept apart here.

Consider “peroxynitric acid [peroxynitric acid solution]”, for which the figures for the “time in which the BI was sterilized (living microorganisms equal to or lower than detection limit)” value in data set [1] (setting [9]) and in data set [1] (setting [10]) were 3 min and 1 min, respectively. For the same compound, the “time in which the BI was sterilized (on-off test)” value in data set [2] (setting [9]) was determined as 10 min; in data set [2] (setting [10]), 1 min. Moreover, the “microbicidal activity from survival curves” value in data set [3] (10, 100, 200 and 600 mM, approximately 0.3 L container, 10^5 CFU spores, CFU assay) is given as “higher molar concentration achieves higher microbicidal activity”. In addition, the “microbicidal activity 1/D (reciprocal of D value)” value in data set [3] (calculated from survival curves S10, S100, S200, S600a, S600b) is on record as “proportional to the molar concentration”. The “time in which the contaminated pig skin model was sterilized” value in data set [4] came to 3 min. The half-time in data set [5] (2° C.) was 132 min; in data set [5] (10° C.), 26 min; in data set [5] (20° C.), 7.8 min; in data set [5] (30° C.), 2 min; in data set [5] (40° C.), 0.6 min; in data set [6] (4.55° C. (277.7 K)), 97 s. Further, in data set [6] (24.85° C. (298 K)), the half-time is 12 s.

Take `O=P(O)(O)O` [phosphoric acid]: in data set [7] (20° C.), the vapor pressure (in general, the equilibrium pressure above the liquid or solid) is on record as 4 Pa.

As for `O=S(=O)(O)O` [Sulfuric acid, sulfuric acid], in data set [7] (25° C.), the vapor pressure is given as 0.0067 Pa.

As to `O=[N+]([O-])O` [Nitric acid, nitric acid], in data set [8], the pKa entry is recorded as “approximately −1.4”. In addition, the vapor pressure in data set [7] (20° C.) is 6.4 kPa.

Values taken from patent publication US20250090705A1, “STERILIZATION METHOD AND STERILIZATION DEVICE” (OSAKA UNIVERSITY, priority 2021, published 2025).
